The subject of one test is isolated rat pancreases. Put plainly: Isolated perfused rat pancreas, insulin secretion.
Test [1] concerns human glucagon receptor (hGCGR). In kind it is cell-based.
The test system of test [2] is protein kinase A (PKA), glucose-6-phosphatase (G6P), phosphorylase kinase (PKC-1), glycogen phosphorylase (GP), phosphoenolpyruvate carboxykinase (PECK). It counts as cell-based, human.
Test [3] deals with INS1 cells. In kind it is cell-based, rat.
Test [4] deals with diabetic animal models (db/db and ob/ob mice). Kind of test: Administration of PG 1-61 to diabetic animal models. It counts as in vivo. As to conditions: 1 pmol; db/db (12 weeks, n=5) and ob/ob mice (14-15 weeks, n=3).
The subject of the next test is rats. The following applies: i.v., 1 pmol, 20 min.
For test [5], the system named is human glucagon-like peptide 1 receptor (hGLP-1R). In kind it is cell-based. As to conditions: COS-7 cells.
Test [6] relates to cultured human hepatocytes (HepG2). Kind of test: cAMP in cultured human hepatocytes. In kind it is cell-based.
The test system of test [7] is INS1 cells. Kind of test: cAMP accumulation in cultured rat β cells. In kind it is cell-based.

Read-outs that look alike come from different tables or passages of the source.

Turning to “RSLQDTEEKSRSFSASQADPLSDPDQMNEDKRHSQGTFTSDYSKYLDSRRAQDFVQWLMNT [PG 1-61]”, the “insulin secretion, tAUC” value in the test on isolated rat pancreases is 3,534 ± 321 min × pM. The “fold decreased potency compared to native glucagon, hGCGR” value in test [1] (from LogEC50 vs glucagon) came out at 100 fold. The “agonist class at hGCGR” value in [1] (transiently transfected COS-7 cells) is recorded as “full agonist”. Moreover, the “protein levels of PKA, G6P, PKC-1, GP and PECK” value in [2] (30-min incubation, 1,000 pM) is reported as “significantly increased protein levels”. The “protein levels of PKA, G6P, PKC-1, GP and PECK” value in test [2] (3 hr incubation, compared with 30 min) was “more pronounced effects”. In test [2] (siRNA GCGR-treated cells, 30-min incubation), the “protein levels of the enzymes in siRNA-treated cells” value is reported as “tended to be lower”. The “insulin release compared to PBS” value in the test with INS1 cells [3] (1 nM, p < 0.001) is listed as “significantly stimulated insulin release”. Also, in the test with INS1 cells [3] (1 nM, p < 0.01), the “PG 1-61-induced insulin secretion after siRNA knockdown of rGCGR vs mock” value is listed as “significantly blunted”. Further, the “insulin release compared to native glucagon” value in the test on INS1 cells [3] (PG 1-61 1 nM) was “comparable to that of native glucagon”. Besides, the “inhibition of glucagon secretion in diabetic animals” value in [4] is “not seem to inhibit the secretion of glucagon”. Besides, in the test on rats, the “blood glucose, in words” value is listed as “increased significantly” and the “plasma amino acids (summed molarity)” value is “decreased significantly”. In addition, the plasma insulin result in the test with rats (no increase with mannitol) is recorded as “increased transiently”. Further, the “agonist class / potency in words at hGLP-1R” value in test [5] was “very low potency”. Moreover, the “activation of hGLP-1R, in words” value in test [5] (Figure 3B legend) is reported as “but not the human glucagon-like peptide 1 receptor (hGLP-1R)”. The “percent of Emax of GLP-1 reached at 1 μM, hGLP-1R” value in test [5] (at a concentration of 1 μM) is recorded as 38%. Moreover, the “stimulated increase in cAMP after siRNA knockdown of hGCGR vs siRNA control” value in [6] (HepG2, siRNA GCGR) is “attenuated”. In addition, in test [6] (HepG2, 10–1,000 pM), the cAMP result is recorded as “stimulated cAMP production dose-dependently”. The “accumulation of cAMP” value in the test on INS1 cells [7] was “dose-dependently increased accumulation of cAMP”.

The record behind these values is paper PMC5695911 (Cell Reports, 2017).
